Test results: patent EP3463364B1, “PYRAZINE DERIVATIVES FOR USE IN THE TREATMENT OF DISEASES ASSOCIATED WITH CELL CYCLE DYSREGULATION” (University of Patras, priority 2016, dated 2017)

Target: T1, exogenous Geminin-Cdtl protein complex (Homo sapiens, UniProt O75496+Q9H211)
T1 construct: expressed in transfected cells; host or cells: MCF7
T1 sequence (Q9H211 1-546): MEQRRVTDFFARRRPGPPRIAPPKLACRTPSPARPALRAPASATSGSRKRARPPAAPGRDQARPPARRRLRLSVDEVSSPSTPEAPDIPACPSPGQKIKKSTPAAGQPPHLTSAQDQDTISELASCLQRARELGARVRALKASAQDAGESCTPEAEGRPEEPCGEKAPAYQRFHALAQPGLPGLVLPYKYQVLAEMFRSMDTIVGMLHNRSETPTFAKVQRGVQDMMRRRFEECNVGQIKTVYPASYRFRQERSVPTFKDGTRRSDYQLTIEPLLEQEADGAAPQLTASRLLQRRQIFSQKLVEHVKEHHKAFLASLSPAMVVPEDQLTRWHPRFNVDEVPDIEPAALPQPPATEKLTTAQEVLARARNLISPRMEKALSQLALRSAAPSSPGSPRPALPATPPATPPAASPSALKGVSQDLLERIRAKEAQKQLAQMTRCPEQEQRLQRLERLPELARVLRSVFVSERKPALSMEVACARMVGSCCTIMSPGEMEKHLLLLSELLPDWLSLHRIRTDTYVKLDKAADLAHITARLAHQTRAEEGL
T1 sequence (O75496 1-209): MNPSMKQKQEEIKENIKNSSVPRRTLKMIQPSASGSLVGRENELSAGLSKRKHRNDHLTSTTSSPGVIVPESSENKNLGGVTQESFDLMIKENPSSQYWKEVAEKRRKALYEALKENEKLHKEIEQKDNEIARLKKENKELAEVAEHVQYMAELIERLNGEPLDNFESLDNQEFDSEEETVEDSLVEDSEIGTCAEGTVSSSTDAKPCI
Assay: FRET acceptor photobleaching cellular assay in co-transfected MCF7 cells (Cdt1-GFP & Geminin-dhcRed)
Assay type: cell-based
Conditions: 100µM, 24-hour incubation, MCF7 cells co-transfected with Cdt1-GFP & Geminin-dhcRed (Fig. 3)
Protocol: A cellular assay was developed and applied using epithelial cells of breast adenocarcinoma (MCF7), for the purpose of the ex vivo study of the ability of the synthetic chemical compound AF-615/30368009 to inhibit formation and/or disrupt the exogenous Geminin-Cdtl protein complex.
The appropriate number of cells was seeded onto glass coverslips and cells were allowed in culture in order to adhere. Then they were transiently co-transfected with plasmid expression vectors pcDNA3.1-EGFP and pdiHcRed-N1 containing the DNA regions encoding for the proteins Cdtl-GFP and Geminin-dhcRed respectively. Three to five hours after co-transfection, the medium was removed and replaced with fresh medium which contained the synthetic chemical compound AF-615/30368009 at a concentration of 100µM. […]
MCF7 cancer cells fixed as described above were used to perform FRET acceptor photobleaching. In order to quantify the efficiency (E) of the FRET phenomenon, the following equation was used: (4) E = (Dpost - Dpre)/Dpost, wherein Dpre and Dpost is the mean value of fluorescence intensity of the donor before and after photobleaching of the acceptor, respectively.
For the purposes of this invention the inhibitory effect of the synthetic compound AF-615/30368009 on the exogenous Geminin-Cdtl protein complex was calculated as the percent (%) change in efficiency (E) of the FRET phenomenon. […]

O=C(NNC(=S)N1CCOCC1)c1cnccn1 [AF-615/30368009, N'-(morpholine-4-carbothioyl)pyrazine-2-carbohydrazide]
efficiency (E) of the FRET phenomenon: decrease in (E), although not statistically significant
